# Assay results published in patent US11319304B2, “Pyridine quinoline compounds as MGLUR4 allosteric potentiators, compositions, and methods of treating neurological dysfunction” (Vanderbilt University, priority 2017, dated 2022).
# pEC50: −log10 of the molar value.
# Target: mGluR4 (Homo sapiens, UniProt Q14833)
# Assay: mGlu4 PAM potentiation assay, CHO cells transfected with human mGluR4, Ca2+-sensitive dye fluorescence
# Format: cell-based
# Experimental: The disclosed compounds and compositions can be evaluated for their ability to act as a potentiator of metabotropic glutamate receptor activity, in particular mGluR4 activity, by any suitable known methodology known in the art. For example, Chinese Hamster Ovary (CHO) cells transfected with human mGluR4 or HEK cells co-transfected with rat mGluR4 and the G-protein regulated Inwardly Rectifying Potassium channel (GIRK) were plated in clear bottom, assay plates for assay in a Hamamatsu FDSS Fluorometric Plate Reader. The cells were loaded with either a Ca2+-sensitive fluorescent dye or the thallium responsive dye and the plates were washed and placed into a suitable kinetic plate reader. For human mGluR4 assays, a fluorescence baseline was established for 3-5 seconds, the disclosed compounds were then added to the cells, and the response in cells was measured. Approximately two and a half minutes later, a concentration of mGluR4 orthosteric agonist (e.g. glutamate, L-AP4, or L-SOP) eliciting approximately 20% (EC20) of the maximal agonist response was added to the cells, and the response was measured. Two minutes later, a concentration of mGluR4 agonist (e.g. glutamate, L-AP4, or L-SOP) eliciting 80% (EC80) of the maximal agonist response was added to the cells, and the response was measured. For rat mGluR4/GIRK experiments, a baseline was established for approximately five seconds, disclosed compounds were added, and either an EC20 or EC80 concentration of agonist was added approximately two and one half minutes later. Potentiation or antagonism of the agonist response of mGluR4 by the disclosed compounds was observed as an increase or decrease in response to the EC20 concentration of agonist in the presence of compound compared to the response to agonist in the absence of compound. Similarly, potentiation or antagonism of the agonist response of mGluR4 by the disclosed Compounds was observed as an increase or decrease in response to the EC80 concentration of agonist in the presence of compound compared to the response to agonist in the absence of compound.
# The above described assay operated in two modes. In the first mode, a range of concentrations of the disclosed compounds are added to cells, followed by a single fixed concentration of agonist. If the compound acts as a potentiatior, an EC50 value for potentiation and a maximum extent of potentiation by the compound at this concentration of agonist is determined by non-linear curve fitting. If the compound acts as an antagonist, an IC50 value is determined by non-linear curve fitting. In the second mode, several fixed concentrations of the disclosed compounds are added to various wells on a plate, followed by a range in concentrations of agonist for each concentration of disclosed compound. The EC50 values for the agonist at each concentration of compound are determined by non-linear curve fitting. A decrease in the EC50 value of the agonist with increasing concentrations of the sample compound (a leftward shift of the agonist concentration-response curve) is an indication of the degree of mGluR4 potentiation at a given concentration of the sample compound. A decrease in the maximal response of the agonist with increasing concentrations of the sample compounds, with or without a rightward shift in agonist potency, is an indication of the degree of antagonism at mGluR4. The second mode also indicates whether the sample compounds also affect the maximum response to mGluR4 to agonists.
# Chain of mGluR4 (Q14833 33-912 limits assumed): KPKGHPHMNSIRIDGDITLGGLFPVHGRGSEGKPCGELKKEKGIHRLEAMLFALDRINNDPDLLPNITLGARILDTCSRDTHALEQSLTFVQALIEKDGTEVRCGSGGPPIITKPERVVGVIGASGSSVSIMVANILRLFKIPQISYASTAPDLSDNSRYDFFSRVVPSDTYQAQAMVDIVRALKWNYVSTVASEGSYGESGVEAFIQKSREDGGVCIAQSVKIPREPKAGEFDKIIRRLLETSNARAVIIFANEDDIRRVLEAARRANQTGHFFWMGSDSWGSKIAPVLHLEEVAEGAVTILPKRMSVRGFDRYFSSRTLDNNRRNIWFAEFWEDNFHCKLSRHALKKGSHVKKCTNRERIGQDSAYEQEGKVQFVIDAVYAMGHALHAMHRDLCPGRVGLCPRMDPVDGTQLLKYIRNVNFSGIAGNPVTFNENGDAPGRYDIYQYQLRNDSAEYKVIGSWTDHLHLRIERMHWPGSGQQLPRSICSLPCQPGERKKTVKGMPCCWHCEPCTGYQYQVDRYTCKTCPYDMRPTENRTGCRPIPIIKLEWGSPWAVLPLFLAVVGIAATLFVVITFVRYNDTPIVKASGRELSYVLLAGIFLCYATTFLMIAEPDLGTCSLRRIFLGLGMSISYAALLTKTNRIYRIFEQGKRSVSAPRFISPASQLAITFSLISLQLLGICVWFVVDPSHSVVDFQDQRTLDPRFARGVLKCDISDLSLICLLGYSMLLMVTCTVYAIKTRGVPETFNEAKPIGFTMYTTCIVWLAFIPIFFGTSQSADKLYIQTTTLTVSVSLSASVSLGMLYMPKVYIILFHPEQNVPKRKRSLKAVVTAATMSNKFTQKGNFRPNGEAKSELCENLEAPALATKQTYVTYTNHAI
row,Compound,pEC50
1,COCCOc1nccc2cc(NC(=O)c3ncccc3N)ccc12 [Compound 21],6.64
2,COCCOc1nccc2cc(NC(=O)c3ncccc3O)ccc12 [Compound 22],6.30
3,CC(C)(C)OCCOc1nccc2cc(NC(=O)c3ncccc3N)ccc12 [Compound 29],6.10
4,O=C(Nc1ccc2c(OC3CCSC3)nccc2c1)c1ccccn1 (centres unmarked) [Compound 54],6.04
5,CC1(C)CC(Oc2nccc3cc(NC(=O)c4ccccn4)ccc23)CCO1 (centres unmarked) [Compound 23],6.84
6,CC1(COc2nccc3cc(NC(=O)c4ncccc4N)ccc23)CCOCC1 [Compound 32],6.49
7,O=C(Nc1ccc2c(OC3CCOCC3)nccc2c1)c1ncccc1O [Compound 14],6.48
8,CO[C@@H](C)COc1nccc2cc(NC(=O)c3ncccc3N)ccc12 [Compound 52],6.54
9,O=C(Nc1ccc2c(OCC3CCOC3)nccc2c1)c1ncc[nH]1 (centres unmarked) [Compound 58],6.66
10,O=C(Nc1ccc2c(OCC3CCOC3)nccc2c1)c1nccs1 (centres unmarked) [Compound 56],6.68
11,O=C(Nc1cc(F)c2c(OCC3CCOCC3)nccc2c1)c1ncccc1C(F)(F)F [Compound 98],6.01
12,CC(C)OCCOc1nccc2cc(NC(=O)c3ncccc3N)ccc12 [Compound 27],6.54
13,O=C(Nc1ccc2c(NC3CC(F)(F)C3)nccc2c1)c1ccccn1 [Compound 75],6.15
14,CC1COCC1COc1nccc2cc(NC(=O)c3ncccc3N)ccc12 (centres unmarked) [Compound 47],6.34
15,CC1(C)CC(Oc2nccc3cc(NC(=O)c4ccccn4)ccc23)C(C)(C)O1 (centres unmarked) [Compound 36],6.03
16,O=C(Nc1ccc2c(OCC3COCCO3)nccc2c1)c1cccc(F)n1 (centres unmarked) [Compound 118],6.67
17,CC(C)(C)OCCOc1nccc2cc(NC(=O)c3ncccc3O)ccc12 [Compound 30],6.31
18,CC1(C)CC(Oc2nccc3cc(NC(=O)c4ncccc4O)ccc23)CCO1 (centres unmarked) [Compound 25],6.83
19,Nc1cccnc1C(=O)Nc1ccc2c(O[C@H]3CCOC3)nccc2c1 [Compound 10],6.28
20,CC1(C)CC(Oc2nccc3cc(NC(=O)c4ncccc4F)cc(F)c23)CCO1 (centres unmarked) [Compound 101],6.92
21,CCOCCOc1nccc2cc(NC(=O)c3ncccc3O)ccc12 [Compound 5],6.64
22,COCCOc1nccc2cc(NC(=O)c3ccccn3)ccc12 [Compound 20],6.13

row,Compound,pEC50
1,Nc1cccnc1C(=O)Nc1ccc2c(OCC3CCCCO3)nccc2c1 (centres unmarked) [Compound 9],6.62
2,O=C(Nc1ccc2c(Oc3ccncc3)nccc2c1)c1ccc(F)cn1 [Compound 113],6.22
3,CC1(C)CC(COc2nccc3cc(NC(=O)c4ncccc4N)ccc23)CO1 (centres unmarked) [Compound 49],6.18
4,CC1CC(Oc2nccc3cc(NC(=O)c4ccccn4)ccc23)CCO1 (centres unmarked) [Compound 43],6.04
5,CC1(C)CC(Oc2nccc3cc(NC(=O)c4ncc(F)cc4F)cc(F)c23)CCO1 (centres unmarked) [Compound 103],7.12
6,Cc1ccoc1C(=O)Nc1ccc2c(OCC3CCOC3)nccc2c1 (centres unmarked) [Compound 110],6.15
7,CCOCCOc1nccc2cc(NC(=O)c3ccccn3)ccc12 [Compound 3],6.36
8,O=C(Nc1ccc2c(OCC3CCOC3)nccc2c1)c1ccsn1 (centres unmarked) [Compound 57],6.80
9,Nc1nccnc1C(=O)Nc1ccc2c(OCC3CCOC3)nccc2c1 (centres unmarked) [Compound 99],7.08
10,O=C(Nc1ccc2c(OCc3cccnc3)nccc2c1)c1ccc(F)cn1 [Compound 114],6.64
11,O=C(Nc1cc(F)c2c(OCC3COCCO3)nccc2c1)c1ccc(F)cn1 (centres unmarked) [Compound 93],6.52
12,O=C(Nc1cc(F)c2c(OCC3CCOC3)nccc2c1)c1ncc(F)cc1F (centres unmarked) [Compound 83],6.81
13,Nc1cccnc1C(=O)Nc1ccc2c(OC3CCOCC3)nccc2c1 [Compound 13],6.54
14,O=C(Nc1ccc2c(OC3CCOCC3F)nccc2c1)c1ncccc1O (centres unmarked) [Compound 42],7.04
15,CO[C@@H](C)COc1nccc2cc(NC(=O)c3ccccn3)ccc12 [Compound 51],6.44
16,Cn1ccnc1C(=O)Nc1ccc2c(OCC3CCOC3)nccc2c1 (centres unmarked) [Compound 59],6.09
17,Nc1cccnc1C(=O)Nc1cc(F)c2c(OCC3CCOC3)nccc2c1 (centres unmarked) [Compound 79],7.32
18,CC1(C)CC(Oc2nccc3cc(NC(=O)c4ccc(F)cn4)cc(F)c23)CCO1 (centres unmarked) [Compound 102],6.85
19,O=C(Nc1ccc2c(OCC3CCOC3)nccc2c1)c1nc(F)ccc1F (centres unmarked) [Compound 74],6.10
20,Nc1cccnc1C(=O)Nc1ccc2c(OC3CCS(=O)(=O)C3)nccc2c1 (centres unmarked) [Compound 55],6.20
21,CC1(COc2nccc3cc(NC(=O)c4ncccc4O)ccc23)CCOCC1 [Compound 33],6.57

# The next lines start with the values.
row,pEC50,Compound
1,6.34,O=C(Nc1cnc2c(OCC3CCOCC3)nccc2c1)c1ccc(F)cn1 [Compound 122]
2,6.97,Nc1cccnc1C(=O)Nc1cc(F)c2c(OCC3CCOCC3)nccc2c1 [Compound 95]
3,6.61,CC1(COc2nccc3cc(NC(=O)c4ccccn4)ccc23)CCOCC1 [Compound 31]
4,6.97,Nc1cccnc1C(=O)Nc1ccc2c(OCC3CCOCC3)nccc2c1 [Compound 2]
5,6.58,O=C(Nc1ccc2c(OCC3CCOC3)nccc2c1)c1ncccc1F (centres unmarked) [Compound 18]
6,6.84,O=C(Nc1ccc2c(OCC3CCOCC3)ncc(F)c2c1)c1ccccn1 [Compound 65]
7,7.41,O=C(Nc1cc(F)c2c(OCC3CCOC3)nccc2c1)c1ccccn1 (centres unmarked) [Compound 78]
8,6.94,Nc1cccnc1C(=O)Nc1cnc2c(OCC3CCOCC3)nccc2c1 [Compound 121]
9,6.15,O=C(Nc1ccc2c(OCC3COCCO3)ncc(F)c2c1)c1ncccc1O (centres unmarked) [Compound 70]
10,7.05,CC1CC(COc2nccc3cc(NC(=O)c4ccccn4)ccc23)CCO1 (centres unmarked) [Compound 37]
11,6.38,O=C(Nc1ccc2c(OCC3COCCO3)ncc(F)c2c1)c1ccccn1 (centres unmarked) [Compound 69]
12,6.80,O=C(Nc1ccc2c(OCC3CCCCO3)nccc2c1)c1ccccn1 (centres unmarked) [Compound 8]
13,7.20,Nc1cccnc1C(=O)Nc1ccc2c(OC[C@H]3CCOC3)nccc2c1 [Compound 62]
14,6.47,CC1COCC1COc1nccc2cc(NC(=O)c3ccccn3)ccc12 (centres unmarked) [Compound 46]
15,7.28,O=C(Nc1cc(F)c2c(OCC3CCOCC3)nccc2c1)c1ccc(F)cn1 [Compound 97]
16,6.61,O=C(Nc1ccc2c(OCC3CCOCC3)ncc(F)c2c1)c1ncccc1O [Compound 67]

row,pEC50,Compound
1,6.82,Nc1cccnc1C(=O)Nc1ccc2c(OCC3CCOCC3)ncc(F)c2c1 [Compound 66]
2,7.18,O=C(Nc1ccc2c(OCC3CCOC3)nccc2c1)c1ccc(O)cn1 (centres unmarked) [Compound 108]
3,6.04,O=C(Nc1ccc2c(OCC3CCOC3)nccc2c1)c1ncc(F)cc1Cl (centres unmarked) [Compound 88]
4,6.00,O=C(Nc1ccc2c(OCC3CCOC3)nccc2c1)c1ncc(F)cc1F (centres unmarked) [Compound 73]
5,7.15,Nc1cccnc1C(=O)Nc1ccc2c(OCC3CCOC3)nccc2c1 (centres unmarked) [Compound 16]
6,6.47,O=C(Nc1ccc2c(OCC3CCOC3)nccc2c1)c1ncccc1Cl (centres unmarked) [Compound 19]
7,7.25,O=C(Nc1ccc2c(OCC3CCOC3)nccc2c1)c1ncccc1O (centres unmarked) [Compound 17]
8,7.04,O=C(Nc1ccc2c(OCC3CCOCC3)nccc2c1)c1cccc(F)n1 [Compound 109]
9,6.27,Cc1ccc(C(=O)Nc2ccc3c(OCC4CCOCC4)nccc3c2)nc1 [Compound 104]
10,6.31,Nc1cccnc1C(=O)Nc1ccc2c(O[C@H]3CCOC3)ncc(F)c2c1 [Compound 71]
11,7.05,Nc1cccnc1C(=O)Nc1ccc2c(OCC3CCOC3)ncc(F)c2c1 (centres unmarked) [Compound 63]
12,6.99,O=C(Nc1cc(F)c2c(OCC3CCOCC3)nccc2c1)c1ncccc1F [Compound 96]
13,6.91,Cc1ccoc1C(=O)Nc1ccc2c(OCC3CCOCC3)nccc2c1 [Compound 111]
14,6.65,O=C(Nc1ccc2c(OCC3CCOC3)nccc2c1)c1ccncn1 (centres unmarked) [Compound 107]
15,6.48,O=C(Nc1cnc2c(OCC3CCOCC3)nccc2c1)c1ccccn1 [Compound 120]
